Laboratory results from patent US20100075918A1, “HYALURONIDASE INHIBITORS AS ANTI-CANCER AGENTS” (priority 2006, published 2010).

Tests used:
[1] = target: T1, HYAL1-type HAase (Homo sapiens, UniProt Q12794); experiment: HAase ELISA-like assay, inhibition of HYAL1 activity; assay type: biochemical
T1 construct: HYAL1 cDNA encoding the full-length protein inserted into an expression vector; made in house
T1 sequence (Q12794 22-435): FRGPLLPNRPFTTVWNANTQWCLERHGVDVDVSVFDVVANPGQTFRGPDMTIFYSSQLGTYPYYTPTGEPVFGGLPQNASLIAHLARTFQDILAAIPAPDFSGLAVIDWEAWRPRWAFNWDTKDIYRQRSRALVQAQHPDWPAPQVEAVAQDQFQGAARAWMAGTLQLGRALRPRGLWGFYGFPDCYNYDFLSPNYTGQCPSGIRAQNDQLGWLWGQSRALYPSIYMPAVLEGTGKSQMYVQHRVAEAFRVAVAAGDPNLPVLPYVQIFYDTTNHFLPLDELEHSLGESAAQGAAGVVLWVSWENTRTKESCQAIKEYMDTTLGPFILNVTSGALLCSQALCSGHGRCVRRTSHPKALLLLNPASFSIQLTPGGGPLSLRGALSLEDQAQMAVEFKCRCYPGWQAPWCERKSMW
Protocol: Briefly, a stable HYAL1-expressing clone having about 40 mU/mL activity was expanded in T75 cm^2 flasks.
A microtiter well plate coated with human umbilical cord HA (MP Biomedicals; Irvine, Calif.) was incubated with about 40 mU/mL of HYAL1-type HAase in the presence or absence of various HAase inhibitors in assay buffer. For the HYAL1-type activity assay, 0.1 M sodium formate, 0.15 M NaCl, and 0.02% bovine serum albumin buffer (pH 4.2) was used as the assay buffer.
The effect of HAase inhibitors on the activity of HYAL1-type HAase was tested at 0, 1, 2, 4, 6, 8, 10, 20, 40, 60, 80 and 100 μg/mL concentrations of each inhibitor. […] Each plate was developed for 3 min and the reaction was terminated by adding 3 N HCl. HAase activity (mU/mL) was calculated from a standard graph prepared by plotting known amounts of Streptomyces HAase (10^−4 U/mL) versus (Control (no enzyme) OD405 nm-Sample OD405 nm). […] The data presented are mean ±SEM from duplicate measurements in two independent experiments.

[2] = target: T2, HYAL1 (Homo sapiens, UniProt Q12794); settings: Isoyama et al. (2006); cited from earlier work
T2 sequence (Q12794 22-435): T1 sequence (Q12794 22-435)

[3] = test system: HYAL1, testicular, honeybee, and Streptomyces hyaluronidases (HAases); settings: Isoyama et al. (2006); 21 potential inhibitors; cited from earlier work
[4] = about 40 mU/mL HYAL1-type HAase, pH 4.2, 37° C. for 16 hours, N.D. = no inhibition detected

Row | Molecule | IC50 (μg/mL), inhibition of HYAL1 activity [1, 4] [µg/mL] | also measured
1 | poly(styrene-4-sulfonate) [PSS 32,000] | 13.5 | 
2 | poly(styrene-4-sulfonate) [PSS 77,000] | 14.8 | 
3 | poly(styrene-4-sulfonate) [PSS 17,000] | 15.2 | 
4 | poly(styrene-4-sulfonate) [PSS 210] |  | IC50 for HYAL1 [2]: no inhibition
5 | poly(styrene-4-sulfonate) [PSS 990,000] | 9.6 | IC50 [2]: 0.0096 µM
6 | poly(styrene-4-sulfonate) [PSS 4300] | 8.48 | 
7 | poly(styrene-4-sulfonate) [PSS 6800] | 22.71 | IC50 to inhibit HYAL1 activity, fold higher than that for PSS 999,000 and PSS 17,000 [1]: 2.5 fold
8 | poly(styrene-4-sulfonate) [PSS 1400] | 26.8 | IC50 to inhibit HYAL1 activity, fold higher than that for PSS 999,000 and PSS 17,000 [1]: 2.5 fold
9 | CCCCCCCCCCCCCCS(=O)(=O)O [1-Tetradecane sulfonic acid, 1-tetradecane sulfonic acid] |  | IC50 ([1]; about 40 mU/mL HYAL1-type HAase, pH 4.2, 37° C. for 16 hours, N.D. = no inhibition detected, read-out: IC50 (μg/mL), inhibition of HYAL1 activity (converted)): 67.9 µM; Effectiveness as HAase inhibitor [3]: not effective HAase inhibitors
10 | poly(styrene-4-sulfonate) [PSS 49,000] | 15.2 | 
11 | poly(styrene-4-sulfonate) [PSS 150,000] | 10.5 | 
12 | Heparin | 15.1 | HYAL1 inhibition [2]: potent inhibitor
13 | CC1(C)[C@@H](O[C@H]2O[C@H](C(=O)O)[C@@H](O)[C@H](O)[C@H]2O[C@@H]2O[C@H](C(=O)O)[C@@H](O)[C@H](O)[C@H]2O)CC[C@]2(C)[C@H]3C(=O)C=C4[C@@H]5C[C@@](C)(C(=O)O)CC[C@]5(C)CC[C@@]4(C)[C@]3(C)CC[C@@H]12 [Glycerrhizic acid, glycerrhizic acid] | 32.4 | Effectiveness as HAase inhibitor [3]: not effective HAase inhibitors
14 | poly(styrene-4-sulfonate) [PSS 350,000] | 13.15 | 
15 | O=C([O-])CC([S-])C(=O)[O-].[Au+].[Na+].[Na+] (stereo not drawn) [sodium aurothiomalate] |  | Effectiveness as HAase inhibitor [3]: not effective HAase inhibitors
